{
  "source": "patent US20250339409A1",
  "about": "“USES OF PAN BET INHIBITORS” (VYNE THERAPEUTICS INC., priority 2021, published 2025)",
  "system": "anti collagen antibodies induced arthritis (ACAIA)",
  "experiment": "Anti collagen antibodies induced arthritis (ACAIA) in mice, intra-articular treatment: paw thickness, arthritis clinical score, body weight;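 also: mouse arthritis induced by IV anti-collagen mAb on day 0 plus IP LPS on day 4, with body weight, caliper paw thickness and 0-4 paw score tracked against a day 0 baseline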",
  "settings": "for Clinical score of treated leg (Avg.) / Paw thickness Avg. Delta untreated -treated / Paw thickness of treated leg (Avg.) / Paw thickness of untreated leg (Avg.) / Percent change of weight per day (Av) / Percent change of weight per day (individual animal) / Δ clinical score untreated -treated, Avg. Delta: 10 mg/kg IA (Group 2)",
  "key": {"[1]": {"settings": "BETi1 0.01 mg/kg IA (Group 5), Av"}, "[2]": {"settings": "BETi1 0.01 mg/kg IA (Group 5), individual animals, 0.01 mg/kg"}, "[3]": {"settings": "BETi1 0.1 mg/kg IA (Group 4), Av"}},
  "note": "Where “and” joins values, the source holds several entries; their conditions need not be identical. Equal values may be shown once. Marks after values point to notes of the source that are not given here.",
  "data": [
    {"smiles": "Cn1cc(-c2cccc(O)c2Oc2ccccc2)c2cc[nH]c2c1=O", "note": "[BETi1]", "values": [
      {"measurement": "Clinical score of treated leg (Avg.)", "setting": "Baseline", "result": 0.00, "unit": "points"},
      {"measurement": "Paw thickness Avg. Delta untreated -treated", "setting": "Baseline", "result": "−0.05", "unit": "mm"},
      {"measurement": "Paw thickness of treated leg (Avg.)", "setting": "Baseline", "result": 2.12, "unit": "mm"},
      {"measurement": "Paw thickness of untreated leg (Avg.)", "setting": "Baseline", "result": 2.07, "unit": "mm"},
      {"measurement": "Percent change of weight per day (Av)", "setting": "Baseline", "result": 100.00, "unit": "%"},
      {"measurement": "Percent change of weight per day (individual animal)", "setting": "Baseline", "result": 100, "unit": "%"},
      {"measurement": "Δ clinical score untreated -treated, Avg. Delta", "setting": "Baseline", "result": 0.00, "unit": "points"},
      {"measurement": "Clinical score of treated leg (Avg.)", "setting": "Day 3", "result": 0.00, "unit": "points"},
      {"measurement": "Paw thickness Avg. Delta untreated -treated", "setting": "Day 3", "result": "−0.01", "unit": "mm"},
      {"measurement": "Paw thickness of treated leg (Avg.)", "setting": "Day 3", "result": 2.16, "unit": "mm"},
      {"measurement": "Paw thickness of untreated leg (Avg.)", "setting": "Day 3", "result": 2.15, "unit": "mm"},
      {"measurement": "Percent change of weight per day (Av)", "setting": "Day 3", "result": 100.21, "unit": "%"},
      {"measurement": "Percent change of weight per day (individual animal)", "setting": "Day 3", "result": "99.5% and 99.54% and 102.4038% and 101.3825% and 100.4673% and 98.1982% and 100%"},
      {"measurement": "Δ clinical score untreated -treated, Avg. Delta", "setting": "Day 3", "result": 0.00, "unit": "points"},
      {"measurement": "Clinical score of treated leg (Avg.)", "setting": "Day 4", "result": 0.00, "unit": "points"},
      {"measurement": "Paw thickness Avg. Delta untreated -treated", "setting": "Day 4", "result": "−0.04", "unit": "mm"},
      {"measurement": "Paw thickness of treated leg (Avg.)", "setting": "Day 4", "result": 2.24, "unit": "mm"},
      {"measurement": "Paw thickness of untreated leg (Avg.)", "setting": "Day 4", "result": 2.20, "unit": "mm"},
      {"measurement": "Percent change of weight per day (Av)", "setting": "Day 4", "result": 100.95, "unit": "%"},
      {"measurement": "Percent change of weight per day (individual animal)", "setting": "Day 4", "result": "100% and 99.07% and 102.8846% and 103.2258% and 100.9346% and 98.65% and 101.8779%"},
      {"measurement": "Δ clinical score untreated -treated, Avg. Delta", "setting": "Day 4", "result": 0.00, "unit": "points"},
      {"measurement": "Clinical score of treated leg (Avg.)", "setting": "Day 5", "result": 0.00, "unit": "points"},
      {"measurement": "Paw thickness Avg. Delta untreated -treated", "setting": "Day 5", "result": 0.01, "unit": "mm"},
      {"measurement": "Paw thickness of treated leg (Avg.)", "setting": "Day 5", "result": 2.16, "unit": "mm"},
      {"measurement": "Paw thickness of untreated leg (Avg.)", "setting": "Day 5", "result": 2.17, "unit": "mm"},
      {"measurement": "Percent change of weight per day (Av)", "setting": "Day 5", "result": 92.17, "unit": "%"},
      {"measurement": "Percent change of weight per day (individual animal)", "setting": "Day 5", "result": "91.58% and 93.06% and 92.79% and 94.86% and 89.64% and 91.08%"},
      {"measurement": "Δ clinical score untreated -treated, Avg. Delta", "setting": "Day 5", "result": 0.00, "unit": "points"},
      {"measurement": "Clinical score of treated leg (Avg.)", "setting": "Day 6", "result": "0.00* points"},
      {"measurement": "Paw thickness Avg. Delta untreated -treated", "setting": "Day 6", "result": "0.34*** mm"},
      {"measurement": "Paw thickness of treated leg (Avg.)", "setting": "Day 6", "result": "2.17*** mm"},
      {"measurement": "Paw thickness of untreated leg (Avg.)", "setting": "Day 6", "result": 2.51, "unit": "mm"},
      {"measurement": "Percent change of weight per day (Av)", "setting": "Day 6", "result": 92.02, "unit": "%"},
      {"measurement": "Percent change of weight per day (individual animal)", "setting": "Day 6", "result": "93.56% and 91.67% and 92.31% and 91.1215% and 91.89% and 91.5493%"},
      {"measurement": "Clinical score of treated leg (Avg.)", "setting": "Day 7", "result": "0.50* points"},
      {"measurement": "Paw thickness Avg. Delta untreated -treated", "setting": "Day 7", "result": "0.77*** mm"},
      {"measurement": "Paw thickness of treated leg (Avg.)", "setting": "Day 7", "result": "2.23** mm"},
      {"measurement": "Paw thickness of untreated leg (Avg.)", "setting": "Day 7", "result": 3.00, "unit": "mm"},
      {"measurement": "Percent change of weight per day (Av)", "setting": "Day 7", "result": 91.86, "unit": "%"},
      {"measurement": "Percent change of weight per day (individual animal)", "setting": "Day 7", "result": "92.57% and 89.81% and 93.75% and 91.59% and 91.44% and 92.02%"},
      {"measurement": "Clinical score of treated leg (Avg.)", "setting": "Day 8", "result": 0.83, "unit": "points"},
      {"measurement": "Paw thickness Avg. Delta untreated -treated", "setting": "Day 8", "result": "1.04*** mm"},
      {"measurement": "Paw thickness of treated leg (Avg.)", "setting": "Day 8", "result": "2.18** mm"},
      {"measurement": "Paw thickness of untreated leg (Avg.)", "setting": "Day 8", "result": 3.22, "unit": "mm"},
      {"measurement": "Percent change of weight per day (Av)", "setting": "Day 8", "result": 90.62, "unit": "%"},
      {"measurement": "Percent change of weight per day (individual animal)", "setting": "Day 8", "result": "92.08% and 88.89% and 94.23% and 87.85% and 90.99% and 89.67%"},
      {"measurement": "Clinical score of treated leg (Avg.)", "setting": "Day 10", "result": "0.17* points"},
      {"measurement": "Paw thickness Avg. Delta untreated -treated", "setting": "Day 10", "result": 1.27, "unit": "mm"},
      {"measurement": "Paw thickness of treated leg (Avg.)", "setting": "Day 10", "result": "2.14** mm"},
      {"measurement": "Paw thickness of untreated leg (Avg.)", "setting": "Day 10", "result": 3.41, "unit": "mm"},
      {"measurement": "Percent change of weight per day (Av)", "setting": "Day 10", "result": 91.54, "unit": "%"},
      {"measurement": "Percent change of weight per day (individual animal)", "setting": "Day 10", "result": "90.59% and 88.89% and 95.19% and 91.59% and 92.34% and 90.61%"},
      {"measurement": "Clinical score of treated leg (Avg.)", "setting": "Day 12", "result": 0.67, "unit": "points"},
      {"measurement": "Paw thickness Avg. Delta untreated -treated", "setting": "Day 12", "result": 1.32, "unit": "mm"},
      {"measurement": "Paw thickness of treated leg (Avg.)", "setting": "Day 12", "result": 2.17, "unit": "mm"},
      {"measurement": "Paw thickness of untreated leg (Avg.)", "setting": "Day 12", "result": 3.48, "unit": "mm"},
      {"measurement": "Percent change of weight per day (Av)", "setting": "Day 12", "result": 94.92, "unit": "%"},
      {"measurement": "Percent change of weight per day (individual animal)", "setting": "Day 12", "result": "95.54% and 93.98% and 98.08% and 92.99% and 95.05% and 93.9%"},
      {"measurement": "Δ clinical score untreated -treated, Avg. Delta", "setting": "Day 12", "result": 2.67, "unit": "points"},
      {"measurement": "Δ clinical score untreated -treated, Avg. Delta", "setting": "Day 6, * p < 0.05 vs. Vehicle", "result": "0.83* points"},
      {"measurement": "Δ clinical score untreated -treated, Avg. Delta", "setting": "Day 7, * p < 0.05 vs. Vehicle", "result": "1.33* points"},
      {"measurement": "Δ clinical score untreated -treated, Avg. Delta", "setting": "Day 8, * p < 0.05 vs. Vehicle", "result": "2.17* points"},
      {"measurement": "Δ clinical score untreated -treated, Avg. Delta", "setting": "Day 10, * p < 0.05 vs. Vehicle", "result": "2.83* points"},
      {"measurement": "reduction of arthritis score, treated vs untreated paw", "setting": "10 mg/kg IA, day 12", "result": 79.9, "unit": "%"},
      {"measurement": "reduction of paw thickness, treated vs untreated paw", "setting": "10 mg/kg IA, day 12", "result": 37.6, "unit": "%"},
      {"measurement": "Weight per day, Baseline", "setting": "[1]", "result": 20.6, "unit": "g"},
      {"measurement": "Weight per day, Day 3", "setting": "[1]", "result": 20.4, "unit": "g"},
      {"measurement": "Weight per day, Day 4", "setting": "[1]", "result": 19.9, "unit": "g"},
      {"measurement": "Weight per day, Day 5", "setting": "[1]", "result": 18.5, "unit": "g"},
      {"measurement": "Weight per day, Day 6", "setting": "[1]", "result": 18.1, "unit": "g"},
      {"measurement": "Weight per day, Day 7", "setting": "[1]", "result": 18.9, "unit": "g"},
      {"measurement": "Weight per day, Day 8", "setting": "[1]", "result": 18.5, "unit": "g"},
      {"measurement": "Weight per day, Day 10", "setting": "[1]", "result": 18.4, "unit": "g"},
      {"measurement": "Weight per day, Day 12", "setting": "[1]", "result": 19.1, "unit": "g"},
      {"measurement": "Weight per day, Baseline", "setting": "[2]", "result": "21 g (2×) and 20.9 g and 21.5 g and 21.4 g and 19.4 g and 18.7 g"},
      {"measurement": "Weight per day, Day 3", "setting": "[2]", "result": "20.8 g and 20.6 g and 21.6 g and 20.9 g and 19.3 g and 18.8 g and 21 g"},
      {"measurement": "Weight per day, Day 4", "setting": "[2]", "result": "21.1 g and 20.8 g and 20.9 g and 21.6 g and 17.4 g and 17.8 g and 19.6 g"},
      {"measurement": "Weight per day, Day 5", "setting": "[2]", "result": "19.5 g and 18.7 g and 19.1 g and 20.2 g and 16.6 g and 16.8 g and 18.4 g"},
      {"measurement": "Weight per day, Day 6", "setting": "[2]", "result": "19.1 g and 19 g and 18.6 g and 19.9 g and 15.6 g and 16.5 g and 18.1 g"},
      {"measurement": "Weight per day, Day 7", "setting": "[2]", "result": "19.4 g and 19.3 g and 18.9 g and 20 g and 16 g and 19.9 g and 18.5 g"},
      {"measurement": "Weight per day, Day 8", "setting": "[2]", "result": "19.3 g and 19.7 g and 18.9 g and 20.1 g and 16 g and 16.9 g and 18.5 g"},
      {"measurement": "Weight per day, Day 10", "setting": "[2]", "result": "19.6 g and 19.5 g (2×) and 18.3 g and 16.2 g and 17.4 g and 18.6 g"},
      {"measurement": "Weight per day, Day 12", "setting": "[2]", "result": "19.9 g and 20 g (2×) and 19.1 g and 16.9 g and 18.2 g and 19.3 g"},
      {"measurement": "Weight per day, Baseline", "setting": "[3]", "result": 20.4, "unit": "g"},
      {"measurement": "Weight per day, Day 3", "setting": "[3]", "result": 20.6, "unit": "g"},
      {"measurement": "Weight per day, Day 4", "setting": "[3]", "result": 20.3, "unit": "g"}
    ]}
  ]
}
